Data taken from US8088819B2, “Derivatives of substituted 3-phenyl-1-(phenylthienyl)propan-1-ones and of 3-phenyl-1-(phenylfuranyl) propan-1-ones, preparation and use” (priority 2006, dated 2012).

Assays:
[1] = system: target genes of the PPARs; assay: Expression of target genes of the PPARs in hepatic and muscle tissues of the db/db mouse, quantitative RT-PCR; assay type: in vivo; conditions: db/db mice; 50 mpk; 28 days
Experimental: The efficacy of the compound according to the invention is also evaluated by measuring, in the hepatic and muscle tissues, the expression of genes involved in carbohydrate and lipid metabolism, and the dissipation of energy. The levels of expression of each gene are normalized relative to the level of expression of the reference genes 36B4 in the liver and 18S in the skeletal muscle. The induction factor, i.e. the ratio of the relative signal (induced by the compound according to the invention) to the mean of the relative values of the control group, is then calculated. The higher this factor, the greater the gene expression activating character of the compound. The final result is represented as the mean of the induction values in each experimental group.
Female db/db mice were kept under a cycle of light and darkness of 12/12 hours at a constant temperature of 20±3° C. After acclimation for one week, the mice were weighed and put in groups of 8 animals selected so that the distribution of their body weight and of their plasma lipid levels, determined for the first time before the experiment, are uniform. The test compounds were suspended in carboxymethylcellulose (Sigma C4888) and administered by intragastric force feeding, at a rate of once per day for 28 days at the chosen dose. The animals had free access to water and to food (standard diet). The food intake and the weight gain are recorded throughout the experiment. At the end of the experiment, the animals were anesthetized after fasting for 4 hours, a blood sample was taken using anticoagulant (EDTA), then the mice were weighed and euthanased. The plasma was separated by centrifugation at 3000 rev/min for 20 minutes, and the samples were stored at +4° C.
Samples of hepatic and muscle tissues were taken and frozen immediately in liquid nitrogen and then stored at −80° C. for later analyses. […]
1 μg of total RNA (quantified by UV spectrophotometry) was then reverse-transcribed to complementary DNA by reaction for 1 hour at 37° C. in a total volume of 30 μl containing buffer 1× (Invitrogen), 1.5 mM of DTT, 0.18 mM of dNTPs (Promega), 200 ng of pdN6 (Amersham), 30 U of RNase inhibitor (Promega) and 1 μl of MMLV-RT (Invitrogen).
The quantitative PCR experiments were carried out using the MyiQ Single-Color Real-Time PCR Detection System (Biorad, Marnes-la-Coquette, France) and were performed using the iQ SYBR Green Supermix kit following the supplier's recommendations, in 96-well plates, on 5 μL of diluted reverse-transcription reaction mixture with a hybridization temperature of 60° C. […]
The amount of fluorescence emitted is directly proportional to the amount of complementary DNA present at the start of the reaction and amplified during PCR. […] The relative expression levels of each target are thus determined using the efficacy curves obtained with the points in the range.
The levels of expression of the genes of interest were then normalized, […] relative to the level of expression of the reference gene 36B4 (whose specific primers are: sense primer: 5′-[…]-3′ (SEQ ID No. 19) and antisense primer: 5′-[…]-3′ (SEQ ID No. 20)), and in the muscle tissue relative to the level of expression of the reference gene 18S (whose specific primers are: sense primer: 5′-[…]-3′ (SEQ ID No. 21) and antisense primer: 5′-[…]-3′ (SEQ ID No. 22)). The induction factor was calculated for each sample. […]

[2] = biological target: T1, hPPARdelta (Homo sapiens, UniProt Q03181); assay: PPAR activation: Gal4-hPPARδ chimera luciferase transactivation in COS-7 cells, Method 2; assay type: cell-based; conditions: COS-7, 24 h
T1 construct: expressed in transfected cells; host or cells: COS-7 (monkey kidney fibroblasts)
T1 sequence (Q03181 211-439 limits assumed): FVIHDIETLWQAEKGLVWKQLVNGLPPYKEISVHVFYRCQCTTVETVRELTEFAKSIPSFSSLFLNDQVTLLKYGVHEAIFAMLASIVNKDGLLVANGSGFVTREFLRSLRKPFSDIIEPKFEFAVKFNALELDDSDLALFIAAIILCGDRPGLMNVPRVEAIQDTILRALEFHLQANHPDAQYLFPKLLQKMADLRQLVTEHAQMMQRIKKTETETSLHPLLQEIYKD
How it was run: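 COS-7 cells were transfected with Gal4-PPAR LBD chimera plus Gal4(RE)_TkpGL3 luciferase reporter (1/10) and seeded serum-free for 4 h. Compounds at 10^−5 to 100 μm were applied for 24 h at 37° C in 1% lipid-free synthetic serum. Luciferase was read after lysis, and EC50 derived.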

SMILES	expression of the gene coding for ACOX1 in the liver [1]	expression of the gene coding for CPT1b in the skeletal muscle [1]	expression of the gene coding for PDK4 in the liver [1]	expression of the gene coding for PDK4 in the skeletal muscle [1]	expression of the gene coding for UCP2 in the skeletal muscle [1]	EC50 ([2]; 1% Ultroser) [nM]	Emax ([2]; maximum percentage response relative to the reference GW501516, read-out: hPPARdelta % max) [%]
CC(C)(Oc1ccc(CCC(=O)c2ccc(-c3ccc(C(F)(F)F)cc3)s2)c(Cl)c1Cl)C(=O)O [Compound 2, 2-(2,3-dichloro-4-(3-oxo-3-(5-(4-(trifluoromethyl)phenyl)thien-2-yl)propyl)phenoxy)-2-methylpropanoic acid]	significant increase	significant increase	significant increase	significant increase	significant increase		
CC(C)(Oc1ccc(CCC(OCc2ccccc2)c2ccc(-c3ccc(C(F)(F)F)cc3)s2)c(Cl)c1Cl)C(=O)O (stereo not shown) [Compound 7, 2-(4-(3-(benzyloxy)-3-(5-(4-(trifluoromethyl)phenyl)thien-2-yl)propyl)-2,3-dichlorophenoxy)-2-methylpropanoic acid]						30	92
